Test results as given in patent US10519111B2, “UV absorbing compounds, compositions comprising same and uses thereof” (CORAL SUNSCREEN PTY LTD, priority 2013, dated 2019).

Columns and labels:
[1] = Critical wavelength (λcrit), approximate in-house measurement; type: physicochemical
Excerpt: As the precise test for critical wavelength was unable to be replicated exactly by the inventors due to the need for specialist equipment and a specific calibration of the spectrophotometer, these values are only approximate to a degree. […] This represents a highly useful result and so, compounds based around this benzoyl substitution pattern shown, are especially preferred.

[2] = UV absorption properties (λmax, molar extinction coefficient ε, efficiency E 1%, 1 cm); type: physicochemical
[3] = Table 1, covalently coupled compounds
[4] = values in order of the λmax values
[5] = Table 1, values in order of the λmax values
[6] = Table 2, values in order of the λmax values
[7] = Table 6A, N-isobutyl-C3-benzoyl compounds
[8] = Table 7, values in order of the λmax values
[9] = Table 13A, miscellaneous compounds

Compound: CC(C)CN1C=C(C(=O)CC/C=C/c2ccc(COc3ccc(C(=O)CC(=O)c4ccc(C(C)(C)C)cc4)cc3)cc2)C(C)(C)CC1
- λcrit [1, 3]: 375 nm

Compound: CCCN(CCC)c1ccc(C(=O)C2=CN(C(C)(C)C)CCC2(C)C)cc1
- λcrit ([1]; Table 13B): 365 nm

Compound: CC1(C)CCN(c2ccccc2)C=C1C(=O)/C=C/c1ccc(/C=C/C(=O)C2=CN(c3ccccc3)CCC2(C)C)cc1
- λcrit ([1]; Table 13B): 390 nm

Compound: CC1(C)CCN(C(C)(C)C)C=C1C(=O)/C=C/c1c2ccccc2c(/C=C/C(=O)C2=CN(C(C)(C)C)CCC2(C)C)c2ccccc12
- λcrit ([1]; Table 13B): 389 nm

Compound: CC1(C)CCN(C(C)(C)C)C=C1C(=O)c1ccc(N2CCCN(c3ccc(C(=O)C4=CN(C(C)(C)C)CCC4(C)C)cc3)CC2)cc1
- λcrit ([1]; Table 13B): 365 nm

Compound: CC1(C)CCN(C(C)(C)C)C=C1C(=O)Nc1cccc(NC(=O)C2=CN(C(C)(C)C)CCC2(C)C)c1 [Compound 188, N,N′-(1,3-phenylene)bis(1-(tert-butyl)-4,4-dimethyl-1,4,5,6-tetrahydropyridine-3-carboxamide)]
- UV λmax [2]: 313 nm
- ε (molar extinction coefficient) [2, 4]: 55779 M⁻¹ cm⁻¹

Compound: Cc1ccc(N2C=C(C(=O)Nc3ccc(C)c(NC(=O)C4=CN(C(C)(C)C)CCC4(C)C)c3)C(C)(C)CC2)cc1 [Compound 190, 1-(tert-butyl)-N-(5-(4,4-dimethyl-1-(p-tolyl)-1,4,5,6-tetrahydropyridine-3-carboxamido)-2-methylphenyl)-4,4-dimethyl-1,4,5,6-tetrahydropyridine-3-carboxamide]
- UV λmax [2]: 314 nm
- ε (molar extinction coefficient) [2, 4]: 51743 M⁻¹ cm⁻¹

Compound: CC1(C)CCN(c2ccc(C(C)(C)C)cc2)C=C1C(=O)Nc1ccc(NC(=O)C2=CN(c3ccc(C(C)(C)C)cc3)CCC2(C)C)cc1 [Compound 191, N,N′-(1,4-phenylene)bis(1-(4-(tert-butyl)phenyl)-4,4-dimethyl-1,4,5,6-tetrahydropyridine-3-carboxamide)]
- UV λmax [2]: 331 nm
- ε (molar extinction coefficient) [2, 4]: 68095 M⁻¹ cm⁻¹

Compound: Cc1ccc(N2C=C(C(=O)Nc3ccccc3)C(C)(C)CC2)cc1 [Compound 192, 4,4-dimethyl-N-phenyl-1-(p-tolyl)-1,4,5,6-tetrahydropyridine-3-carboxamide]
- UV λmax [2]: 323 nm
- ε (molar extinction coefficient) [2, 4]: 33948 M⁻¹ cm⁻¹

Compound: CC1(C)CCN(c2ccc(C(C)(C)C)cc2)C=C1C(=O)Nc1ccccc1 [Compound 193, 1-(4-(tert-butyl)phenyl)-4,4-dimethyl-N-phenyl-1,4,5,6-tetrahydropyridine-3-carboxamide]
- UV λmax [2]: 324 nm
- ε (molar extinction coefficient) [2, 4]: 35759 M⁻¹ cm⁻¹

Compound: CC1(C)CCN(c2ccc(C(C)(C)C)cc2)C=C1C(=O)C(F)(F)F [Compound 194, 1-(1-(4-(tert-butyl)phenyl)-4,4-dimethyl-1,4,5,6-tetrahydropyridin-3-yl)-2,2,2-trifluoroethanone]
- UV λmax [2]: 337 nm
- ε (molar extinction coefficient) [2, 4]: 42723 M⁻¹ cm⁻¹

Compound: COc1ccc(N2C=C(C(=O)C(F)(F)F)C(C)(C)CC2)cc1 [Compound 195, 2,2,2-trifluoro-1-(1-(4-methoxyphenyl)-4,4-dimethyl-1,4,5,6-tetrahydropyridin-3-yl)ethanone]
- UV λmax [2]: 339 nm
- ε (molar extinction coefficient) [2, 4]: 24235 M⁻¹ cm⁻¹

Compound: CN(C)c1ccc(N2C=C(C(=O)C(F)(F)F)C(C)(C)CC2)cc1 [Compound 196, 1-(1-(4-(dimethylamino)phenyl)-4,4-dimethyl-1,4,5,6-tetrahydropyridin-3-yl)-2,2,2-trifluoroethanone]
- UV λmax [2]: 354 nm
- ε (molar extinction coefficient) [2, 4]: 32744 M⁻¹ cm⁻¹

Compound: Cc1ccc(N2C=C(C(=O)C(F)(F)F)C(C)(C)CC2)cc1 [Compound 197, 1-(4,4-dimethyl-1-(p-tolyl)-1,4,5,6-tetrahydropyridin-3-yl)-2,2,2-trifluoroethanone]
- UV λmax [2]: 337 nm
- ε (molar extinction coefficient) [2, 4]: 43513 M⁻¹ cm⁻¹

Compound: CC1(C)CCN(c2cccc3ccccc23)C=C1C(=O)C(F)(F)F [Compound 198, 1-(4,4-dimethyl-1-(naphthalen-1-yl)-1,4,5,6-tetrahydropyridine-3-yl)-2,2,2-trifluoroethanone]
- UV λmax [2]: 325 nm

Compound: Cc1ccc(N2C=CC(C)(C)C(C(=O)C(F)(F)F)=C2)cc1 [Compound 199, 1-(4,4-dimethyl-1-(p-tolyl)-1,4-dihydropyridin-3-yl)-2,2,2-trifluoroethanone]
- UV λmax [2]: 388 nm
- ε (molar extinction coefficient) [2, 4]: 14911 M⁻¹ cm⁻¹

Compound: Cc1nn(C)c(N2C=CC(C)(C)C=C2)c1C(=O)C(F)(F)F [Compound 200, 1-(5-(4,4-dimethylpyridin-1(4H)-yl)-1,3-dimethyl-1 H-pyrazol-4-yl)-2,2,2-trifluoroethanone]
- UV λmax [2]: 253 nm
- ε (molar extinction coefficient) [2, 4]: 10016 M⁻¹ cm⁻¹

Compound: CC1(C)CCN(c2ccc(C(C)(C)C)cc2)C=C1C(=O)C(c1ccccc1)c1ccccc1 [Compound 204, 1-(1-(4-(tert-butyl)phenyl)-4,4-dimethyl-1,4,5,6-tetrahydropyridine-3-yl)-2,2-diphenylethanone]
- UV λmax [2]: 337 nm
- ε value ([2]; unit not given): approximately 18000
- ε (molar extinction coefficient) [2, 4]: 17793 M⁻¹ cm⁻¹

Compound: CC1(C)CCN(c2ccc(C(C)(C)C)cc2)C=C1C(=O)C1c2ccccc2-c2ccccc21 [Compound 205, (1-(4-(tert-butyl)phenyl)-4,4-dimethyl-1,4,5,6-tetrahydropyridin-3-yl)(9H-fluoren-9-yl)methanone]
- UV λmax [2]: 339 nm
- ε (molar extinction coefficient) [2, 4]: 30745 M⁻¹ cm⁻¹

Compound: COc1ccc(C(=O)C(CCCCCC(=O)C2=CN(CC(C)C)CCC2(C)C)C(=O)c2ccc(C(C)(C)C)cc2)cc1 (stereo not drawn) [drawing 45]
- λmax [2, 3]: 306 nm

Compound: C=CCCC(=O)C1=CN(CC(C)C)CCC1(C)C [drawing 46]
- λmax [2, 3]: 308 nm
- Ε (1%, 1 cm) [2, 5]: 1417
- ε [2, 5]: 35000 M⁻¹ cm⁻¹

Compound: CC(C)CN1C=C(C(=O)c2ccc(C(C)(C)C)cc2)C(C)(C)CC1 [drawing 51]
- λmax ([2]; Table 2, compounds 11-13): 317 nm
- Ε (1%, 1 cm) [2, 6]: 581
- ε [2, 6]: 19000 M⁻¹ cm⁻¹

Compound: COc1ccc(C(=O)C2=CN(CC(C)C)CCC2(C)C)cc1 [drawing 52]
- λmax ([2]; Table 2, compounds 11-13): 319 nm

Compound: COc1ccc(C(=O)CC(=O)C2=CN(CC(C)C)CCC2(C)C)cc1 [drawing 53]
- λcrit ([1]; Table 2, compounds 11-13): 389 nm

Compound: CC1(C)CCN(C(C)(C)C)C=C1C(=O)CC(=O)c1ccccc1 [drawing 76]
- λcrit ([1]; Table 5): 385 nm

Compound: CC(C)CN1C=C(C(=O)c2ccc(Br)cc2)C(C)(C)CC1 [drawing 84]
- E (1%, 1 cm) ([2]; Table 6A): 642
- ε ([2]; Table 6A): 22500 M⁻¹ cm⁻¹
- λmax [2, 7]: 318 nm

Compound: CC(C)CN1C=C(C(=O)c2ccc3c(c2)CCO3)C(C)(C)CC1 [drawing 85]
- E (1%, 1 cm) ([2]; Table 6A): 831
- ε ([2]; Table 6A): 22000 M⁻¹ cm⁻¹
- λmax [2, 7]: 320 nm

Compound: CC(C)CN1C=C(C(=O)c2ccc(-c3ccccc3)cc2)C(C)(C)CC1 [drawing 86]
- E (1%, 1 cm) ([2]; Table 6A): 509
- ε ([2]; Table 6A): 18000 M⁻¹ cm⁻¹
- λmax [2, 7]: 320 nm

Compound: CC(C)CN1C=C(C(=O)c2ccccc2)C(C)(C)CC1 [drawing 87]
- E (1%, 1 cm) ([2]; Table 6A): 701
- ε ([2]; Table 6A): 19000 M⁻¹ cm⁻¹
- λmax [2, 7]: 316 nm

Compound: CC(C)CN1C=C(C(=O)c2ccc(C(=O)C3=CN(CC(C)C)CCC3(C)C)cc2)C(C)(C)CC1 [drawing 88]
- E (1%, 1 cm) ([2]; Table 6A): 547
- ε ([2]; Table 6A): 20000 M⁻¹ cm⁻¹
- λmax [2, 7]: 320 nm

Compound: CC(C)CN1C=C(C(=O)c2cc(C(=O)C3=CN(CC(C)C)CCC3(C)C)cc(C(=O)C3=CN(CC(C)C)CCC3(C)C)c2)C(C)(C)CC1 [drawing 89]
- E (1%, 1 cm) ([2]; Table 6A): 502
- ε ([2]; Table 6A): 33000 M⁻¹ cm⁻¹
- λmax [2, 7]: 316 nm

Compound: CC(C)CN1C=C(C(=O)c2ccc(C(=O)c3ccccc3)cc2)C(C)(C)CC1 [drawing 90]
- E (1%, 1 cm) ([2]; Table 6A): 200
- ε ([2]; Table 6A): 7500 M⁻¹ cm⁻¹
- λmax [2, 7]: 295 nm

Compound: COc1ccc(C(=O)C2=CN(CC(C)C)CCC2(C)C)c(OC)c1 [drawing 91]
- E (1%, 1 cm) ([2]; Table 6A): 286
- ε ([2]; Table 6A): 9500 M⁻¹ cm⁻¹
- λmax [2, 7]: 313 nm

Compound: CC(C)=CC(=O)C1=CN(CC(C)C)CCC1(C)C [drawing 107]
- λmax ([2]; Table 7, unsaturated compounds): 314 nm
- E (1%, 1 cm) [2, 8]: 757
- ε [2, 8]: 19000 M⁻¹ cm⁻¹

Compound: C=C(C)CC(=O)C1=CN(CC(C)C)CCC1(C)C [drawing 108]
- λmax ([2]; Table 7, unsaturated compounds): 306 nm
- E (1%, 1 cm) [2, 8]: 574
- ε [2, 8]: 14500 M⁻¹ cm⁻¹

Compound: C=C/C=C/CC(=O)C1=CN(CC(C)C)CCC1(C)C [drawing 109]
- λmax ([2]; Table 7, unsaturated compounds): 311 nm
- E (1%, 1 cm) [2, 8]: 1053
- ε [2, 8]: 27500 M⁻¹ cm⁻¹

Compound: C=CCC(=O)C1=CN(CC(C)C)CCC1(C)C [drawing 110]
- λmax ([2]; Table 7, unsaturated compounds): 310 nm
- E (1%, 1 cm) [2, 8]: 1102
- ε [2, 8]: 27000 M⁻¹ cm⁻¹

Compound: CC(C)CN1C=C(C(=O)/C=C/C=Cc2ccccc2)C(C)(C)CC1 [drawing 115]
- λcrit ([1]; Table 7): 387 nm

Compound: C=C(C)C(=O)C1=CN(CC(C)C)CCC1(C)C [drawing 116]
- λmax ([2]; Table 7, unsaturated compounds): 310 nm
- E (1%, 1 cm) [2, 8]: 806
- ε [2, 8]: 18950 M⁻¹ cm⁻¹

Compound: CC(C)CN1C=C(C(=O)C(C#N)=C(c2ccccc2)c2ccccc2)C(C)(C)CC1 [drawing 118]
- λcrit ([1]; Table 7): 357 nm

Compound: CC1(C)C=CN(c2ccccc2)CC1 [drawing 121]
- E (1%, 1 cm) ([2]; Table 8a): 1205
- ε ([2]; Table 8a): 22550 M⁻¹ cm⁻¹
- λmax ([2]; Table 8a, N-phenyl compounds): 278 nm

Compound: CC1(C)C=CN(c2ccccc2)C=C1 [drawing 125]
- E (1%, 1 cm) ([2]; Table 8a): 866
- ε ([2]; Table 8a): 16000 M⁻¹ cm⁻¹
- λmax ([2]; Table 8a, N-phenyl compounds): 285 nm

Compound: COc1ccc(N2C=CC(C)(C)CC2)cc1 [drawing 126]
- λmax ([2]; Table 8a, N-phenyl compounds): 275 nm

Compound: CCC(=O)C1=CN(CC(C)C)C(=O)CC1(C)C [drawing 169]
- λmax [2, 9]: 291 nm

Compound: CC(C)CN1C=C(C(=O)CCC(=O)O)C(C)(C)CC1 [drawing 171]
- λmax [2, 9]: 308 nm

Compound: CC(C)CN1C=C(C(=O)C(c2ccccc2)c2ccccc2)C(C)(C)CC1 [drawing 172]
- E (1%, 1 cm) ([2]; Table 13A): 716
- ε ([2]; Table 13A): 26000 M⁻¹ cm⁻¹
- λmax [2, 9]: 314 nm

Compound: CC(C)CN1C=C(S(=O)(=O)c2ccccc2)C(C)(C)CC1 [drawing 173]
- E (1%, 1 cm) ([2]; Table 13A): 359
- ε ([2]; Table 13A): 11000 M⁻¹ cm⁻¹
- λmax [2, 9]: 285 nm
